Laboratory results taken from US20070281865A1, “MULTI-FUNCTIONAL SPACER FOR GLYCANS” (priority 2006, published 2007).
“Also recorded” adds a separate entry of the source.

Tests used:
[1] = pKa of deprotected spacer; format: physicochemical
[2] = test system: anti-carbohydrate antibodies in sera of metastatic breast cancer patients; experiment: Sera of metastatic breast cancer patients on glycan array; format: binding, Human; conditions: sera 1:25; 9 MBC patients, 10 healthy
Method: Individual (not pooled) sera were collected from 9 patients who were diagnosed with metastatic breast cancer (MBC). Blood samples were collected before treatment, so that therapeutic intervention would not interfere with patient immune responses. One patient with breast cancer but with good prognosis (IDC, Stage 1) was also included in the study. As control, or “healthy” sera, sera from ten healthy individuals, 5 female and 5 male, with no known malignancies was collected.
(§1) Sera were diluted 1:25 with PBS containing 3% BSA, and placed on the glycan array slide in humidified chamber at room temperature for 90 min. The glycan array slide was then rinsed gently with PBS/0.05% Tween, incubated with biotinylated goat antibody against human IgG, IgM and IgA, rinsed in PBS/0.05% Tween, and incubated with streptavidin-Alexa488 fluorescent dye. Following rinses in PBS/0.05% Tween and H2O, glycan array slides were dried and scanned using the commercial DNA array scanner. […] Signal to background was typically greater 50:1 and no background subtractions were performed. Data were plotted using MS Excel software.

[3] = test system: antibodies in serum of patients who received porcine fetal pancreas islet-like cell clusters; experiment: Sera of xenotransplant recipients on glycan array; format: binding, Human; conditions: before and 1, 6, 12 months after transplantation
Method: In 1991-1994, several diabetic (I) patients received transplantation of porcine fetal pancreas islet-like cell clusters (ICC). See, Groth, C. G. et al. Transplantation of porcine fetal pancreas to diabetic patients, The Lancet 344: 1402-4 (1994). The inventor analyzed serum from three of these patients before transplant (t=0), 1 months after (t=1), 6 months after (t=2) and 12 months after (t=3) transplant.
as §1, with “as needed” for “1:25”

[4] = test system: Human anti-HIV 2G12 monoclonal antibody; experiment: 2G12 binding on glycan array; conditions: for binding of 2G12 antibody (in words): glycan array, 2G12 30 μg/mL pre-complexed with goat anti-human-IgG-FITC
Excerpt: Glycan array fabrication.
Glycan Binding Protein binding assay. […] Saliva samples were similarly handled.
Image acquisition and signal processing. […] Data were plotted using MS Excel software.

Concanavalin A (Con A) = Concanavalin A (Con A) (Canavalia ensiformis, UniProt P02866); conditions: printing times up to 5 hours

| Molecule | serum antibodies against glycan in metastatic breast cancer patients versus healthy individuals (in words) [2] | binding of 2G12 antibody (in words) [4] | also measured |
| --- | --- | --- | --- |
| C=CCCONC [Compound 1033] | – | – | pKa1 [1]: 4.8 |
| CC(=O)N[C@H]1[C@H](O[C@H]2[C@@H](O)[C@@H](CO)O[C@@H](O[C@H]3[C@H](O)[C@@H](O)C(O)O[C@@H]3CO)[C@@H]2O)O[C@H](CO)[C@@H](O)[C@@H]1O (stereo partly drawn) [LNT-2, GlcNAc-beta3-Gal-beta4-Glc-beta] | bind and higher | – | – |
| Fucose-alpha2-Gal-beta3-GalNAc-beta3-Gal-alpha-4-Gal-beta4-Glc [Globo-H] | bind and higher | – | – |
| Gal-beta3-GalNAc-beta4-[Neu5Ac-alpha3]-Gal-beta4-Glc-beta [GM1] | bind and higher | – | – |
| Galβ1-4(Fucα1-3)GlcNAcβSp [Glycan 65] | – | – | serum antibodies against glycan in xenotransplant recipients (in words) [3]: do not have antibodies; also recorded: essentially no anti-LeX antibodies are detected |
| Manα1-2Manα1-2Manα1-3(Manα1-2Manα1-3(Manα1-2Manα1-6)Manα1-6)Manβ1-4GlcNAcβ1-4GlcNAcβSp [Glycan 145] | – | – | binding of 2G12 antibody (in words) ([4]; listed as Man9): relatively weakly bound; binding of 2G12 antibody (in words) ([4]; listed as Man-9-N-glycans): smaller level of binding |
| Manα1-2Manα1-3(Manα1-2Manα1-6)ManαSp [Glycan 136] | – | strong binding | variation in maximal binding of con A (Concanavalin A (Con A)): less than 10%; Rel. spec. (Relative binding activity) ([4]; binding of 2G12 to mannose containing glycans in the glycan array): +++ (+++ > 25,000) |
| Manα1-2Manα1-6(Manα1-3)Manα1-6(Manα1-2Manα1-3)Manβ1-4GlcNAcβ1-4GlcNAcβSp [Glycan 144] | – | strong preference for binding | – |
| Manα1-3Manα1-6(Manα1-2Manα1-3)Manβ1-4GlcNAcβ1-4GlcNAcβSp [Glycan 140] | – | did not support binding at all | – |
| Manα1-6(Manα1-2Manα1-3)Manα1-6(Manα1-2Manα1-3)Manβ1-4GlcNAcβ1-4GlcNAcβSp [Glycan 143] | – | did not support binding at all | – |
| Manα1-6(Manα1-3)Manα1-6(Manα1-2Manα1-3)Manβ1-4GlcNAcβ1-4GlcNAcβSp [Glycan 142] | – | did not support binding at all | – |
| Neu5Acα2-6GalNAcα- | significantly higher levels | – | – |
| Neu5Gc(2-6)GalNAc | bind | – | – |
| Glycan 4: Ceruloplasmine mixture of bi and tri- and tetra-antenary N-glycans (protein, UniProt P00450 20-1065, looked up, N-glycans) Ceruloplasmin: KEKHYYIGIIETTWDYASDHGEKKLISVDTEHSNIYLQNGPDRIGRLYKKALYLQYTDETFRTTIEKPVWLGFLGPIIKAETGDKVYVHLKNLASRPYTFHSHGITYYKEHEGAIYPDNTTDFQRADDKVYPGEQYTYMLLATEEQSPGEGDGNCVTRIYHSHIDAPKDIASGLIGPLIICKKDSLDKEKEKHIDREFVVMFSVVDENFSWYLEDNIKTYCSEPEKVDKDNEDFQESNRMYSVNGYTFGSLPGLSMCAEDRVKWYLFGMGNEVDVHAAFFHGQALTNKNYRIDTINLFPATLFDAYMVAQNPGEWMLSCQNLNHLKAGLQAFFQVQECNKSSSKDNIRGKHVRHYYIAAEEIIWNYAPSGIDIFTKENLTAPGSDSAVFFEQGTTRIGGSYKKLVYREYTDASFTNRKERGPEEEHLGILGPVIWAEVGDTIRVTFHNKGAYPLSIEPIGVRFNKNNEGTYYSPNYNPQSRSVPPSASHVAPTETFTYEWTVPKEVGPTNADPVCLAKMYYSAVEPTKDIFTGLIGPMKICKKGSLHANGRQKDVDKEFYLFPTVFDENESLLLEDNIRMFTTAPDQVDKEDEDFQESNKMHSMNGFMYGNQPGLTMCKGDSVVWYLFSAGNEADVHGIYFSGNTYLWRGERRDTANLFPQTSLTLHMWPDTEGTFNVECLTTDHYTGGMKQKYTVNQCRRQSEDSTFYLGERTYYIAAVEVEWDYSPQREWEKELHHLQEQNVSNAFLDKGEFYIGSKYKKVVYRQYTDSTFRVPVERKAEEEHLGILGPQLHADVGDKVKIIFKNMATRPYSIHAHGVQTESSTVTPTLPGETLTYVWKIPERSGAGTEDSACIPWAYYSTVDQVKDLYSGLIGPLIVCRRPYLKVFNPRRKLEFALLFLVFDENESWYLDDNIKTYSDHPEKVNKDDEEFIESNKMHAINGRMFGNLQGLTMHVGDEVNWYLMGMGNEIDLHTVHFHGHSFQYKHRGVYSSDVFDIFPGTYQTLEMFPRTPGIWLLHCHVTDHIHAGMETTYTVLQNEDTKSG | bind and significantly higher levels | – | – |
